In US20150352134A1, “COMPOSITION FOR TOPICAL SKIN APPLICATION CONTAINING GINSENOSIDE F2 DERIVED FROM HYDROPONIC GINSENG” (AMOREPACIFIC CORPORATION, priority 2012, published 2015):

Legend:
Assay type in all cases: cell-based
5α-reductase = biological target: T1, 5α-reductase (Homo sapiens, UniProt P31213); experiment: 5α-reductase activity inhibition, conversion of [14C]testosterone to DHT in HEK293-5α R2 cells; conditions: 2 hours
T1 construct: 3×FLAG; expressed in transfected cells; host or cells: HEK293
T1 sequence (P31213 1-254): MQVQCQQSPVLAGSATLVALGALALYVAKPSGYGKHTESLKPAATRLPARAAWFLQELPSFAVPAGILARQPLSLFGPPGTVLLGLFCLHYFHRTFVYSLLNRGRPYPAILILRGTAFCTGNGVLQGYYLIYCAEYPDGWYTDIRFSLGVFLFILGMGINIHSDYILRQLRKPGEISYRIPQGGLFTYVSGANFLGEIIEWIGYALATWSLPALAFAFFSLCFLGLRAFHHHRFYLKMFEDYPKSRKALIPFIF
Protocol: In order to evaluate the inhibitory effect on the activity of 5α-reductase, the conversion rate from [^14C]testosterone to [^14C]dihydrotestosterone (DHT) in HEK293-5α R2 cells is measured. P3×FLAG-CMV-5α R2 is transduced into HEK293 cells, which are cultured in a 24-well plate at a rate of 2.5×10^5 cells per well (Park et al., 2003, JDS. Vol. 31, pp. 191-98). The next day, the used culture medium is replaced with a new culture medium containing an enzyme substrate and an inhibitor. The substrate of the culture medium is 0.05 μCi [^14C]testosterone (Amersham Pharmacia Biotech, UK).
To evaluate the degree of 5α-reductase activity inhibition, the cells are treated with ginsenoside F2 and then cultured in a 5% CO2 incubator at 37° C. for 2 hours. In this regard, the negative control is the group not treated with ginsenoside F2, while the positive control is the group treated with finasteride. Subsequently, the culture medium is collected to extract steroids with 800 μl of ethylacetate, and the supernatant organic solvent phase is isolated and dried. The residue is dissolved in 50 μl of ethylacetate and developed on silica plastic sheet kieselgel 60 F254 using an ethylacetate-hexane (1:1) solvent.
The plastic sheet is dried out in the air and measured in regards to the abundance of isotope using a bath system. The dry plastic sheet together with an X-ray film is put in a bath cassette. After one week, the abundance of isotope of testosterone and dihydrotestosterone remaining on the film is measured to calculate the conversion rate and the inhibition rate according to the following mathematical formulas 5 and 6, respectively.

[1] = system: prostaglandin generation in macrophagocytes collected from the abdominal cavity of a mouse; experiment: Prostaglandin generation inhibition in LPS-treated macrophagocytes (ELISA); conditions: 100 μl of ginsenoside F2
Protocol: The inflammatory effect is evaluated in terms of the inhibitory effect on prostaglandin generation. Ginsenoside F2 is used to measure the effect on macrophagocytes. Firstly, macrophagocytes collected from the abdominal cavity of a mouse are treated with aspirin to have the final concentration of 500 µM, causing irreversible inhibition on the activity of cyclooxygenase (COX) remaining in the macrophagocytes. Then, 100 μl of the suspension is put in each well of a 96-well culture plate and cultured in an incubator under the conditions of 5% CO2 and 37° C. for 2 hours to immobilize the macrophagocytes on the surface of the container. Subsequently, the immobilized macrophagocytes are washed with PBS three times and used in the inflammatory improvement test. […] Then, the macrophagocytes are treated with 100 μl of ginsenoside F2, and the isolated prostaglandin is quantitatively analyzed by way of ELISA (Enzyme-Linked ImmunoSorbent Assey).
In this regard, the prostaglandin generation inhibitory activity of the ginsenoside F2 is determined by the reduced amount of prostaglandin generated in the LPS-treated group in comparison with the case of the control in terms of the percentage amount of the prostaglandin decreased by treatment with LPS and the sample, while the difference in the amount of the generated prostaglandin between the LPS-treated group and the control group is set to 100%.

interleukin-8 (IL-8) = experiment: IL-8 generation inhibition in normal human skin keratinocytes (ELISA); conditions: stimulation with PGSA / LPS, 24 hours
Protocol: One day before the testing, normal human skin keratinocytes (NHEK) purchased from Lonza are injected into a 96-well plate at a rate of 5×10^4 cells/well and cultured in an incubator under conditions of 5% CO2 and 37° C. for 24 hours. After 24 hours, the culture plate is washed with PBS twice, and the used culture medium is replaced with a serum-free keratinocyte basement medium. Ginsenoside F2 is injected into each well according to the concentration of Table 24 and allowed to react for 30 minutes. Then, the keratinocytes are treated separately with 10 μg/ml of PGSA, 50 μg/ml of PGSA, and a mixture of PGSA (50 μg/ml) and LPS (1 μg/ml). In this regard, PGSA (peptidoglycan from S. aureus) is stapylococcus-derived peptidoglycan that is a principal component of the cell membrane of gram-positive (+) bacteria, and the components of the cell membrane of bacteria are known to cause inflammation. Particularly, it is reported that about 90% of patients with atopic dermatitis are susceptible to secondary infection due to staphylococcus. LPS (lipopolysaccharide) is a principal component of the cell membrane of gram-negative (−) bacteria and reportedly a main cause of inflammation. After the keratinocytes are cultured in an incubator under conditions of 5% CO2 and 37° C. for 24 hours, the culture medium is collected and subjected to ELISA for interleukin-8 (IL-8). The ELISA is carried out according to the testing method as instructed by the manufacturer (BD Science).

MITF = MITF expression in melanocytes (Western Blot); conditions: 501me1 cell line, IBMX 100 μM, ginsenoside 10 ppm
Protocol: 501me1 cell line is injected in each well of a 6-well microtiter plate at a rate of 500,000 cells/well. The cell line in each well is treated with 0.1% of DMSO as the negative control group, 100 μM of IBMX as the positive control group, or ginsenoside 10 ppm of F2 as the test group, and cultured at 37° C. for 24 hours, 48 hours, or 72 hours, to obtain proteins. The proteins thus obtained are subjected to Western Blot using MITF and tyrosinase antibodies. Protein extraction and Western Blot are performed using the standard methods known in the art.

| SMILES | Inhibition rate (%) (5α-reductase; 5α-reductase activity) | Conversion rate (%) (5α-reductase; testosterone to dihydrotestosterone) | prostaglandin generation (Blank = 100%) [1] | IL-8 secretion (interleukin-8 (IL-8); 5 ppm) | IL-8 secretion (interleukin-8 (IL-8); 25 ppm) | IL-8 secretion (interleukin-8 (IL-8); 50 ppm) | MITF (Western Blot, in comparison with 100 of the negative control group) (MITF; 24 hrs) | MITF (Western Blot, in comparison with 100 of the negative control group) (MITF; 48 hrs) | MITF (Western Blot, in comparison with 100 of the negative control group) (MITF; 72 hrs) |
| --- | --- | --- | --- | --- | --- | --- | --- | --- | --- |
| CC(C)=CCC[C@](C)(O[C@@H]1O[C@H](CO)[C@@H](O)[C@H](O)[C@H]1O)[C@H]1CC[C@]2(C)[C@@H]1[C@H](O)C[C@@H]1[C@@]3(C)CC[C@H](O[C@@H]4O[C@H](CO)[C@@H](O)[C@H](O)[C@H]4O)C(C)(C)[C@@H]3CC[C@]12C [Ginsenoside F2, ginsenoside F2] | 59.7% | 15.4% | 24.2% | 1209.66 pg/mL | 1118.80 pg/mL | 1110.29 pg/mL | 92 | 120 | 162 |
| CC(C)=CCC[C@](C)(O[C@@H]1O[C@H](CO[C@@H]2O[C@H](CO)[C@@H](O)[C@H](O)[C@H]2O)[C@@H](O)[C@H](O)[C@H]1O)[C@H]1CC[C@]2(C)[C@@H]1[C@H](O)C[C@@H]1[C@@]3(C)CC[C@H](O[C@@H]4O[C@H](CO)[C@@H](O)[C@H](O)[C@H]4O[C@@H]4O[C@H](CO)[C@@H](O)[C@H](O)[C@H]4O)C(C)(C)[C@@H]3CC[C@]12C [Ginsenoside Rb1] |  |  |  |  |  |  | 93 | 116 | 144 |
